Common to all, as to assay: inhibition of tumour cell growth, NCI panel, 48 h
Experiment [1] deals with 786-0.
Experiment [2] concerns BT-549.
In experiment [3] the test system is CCRF-CEM.
Experiment [4] concerns HOP-62.
For experiment [5], the system named is HOP-92.
Experiment [6] concerns LOX IMVI.
Experiment [7] has as its system NCI-H23.
For experiment [8], the system named is NCI/ADR-RES.
For experiment [9], the system named is OVCAR-8.
Experiment [10] deals with RPMI-8226.
Experiment [11] relates to RXF 393.
Experiment [12] concerns SF-539.
Experiment [13] relates to SK-MEL-2.
The test system of experiment [14] is SN12C.
The test system of experiment [15] is SW-620.
For experiment [16], the system named is T47D.
In experiment [17] the test system is UACC-62.
For experiment [18], the system named is UO-31.
Experiment [19] has as its system NCI-H226.
For experiment [20], the system named is SK-MEL-5.

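Briefly, cells in 96-well plates were exposed to five compound concentrations for 48 h, and endpoints were estimated by linear interpolation. GI50 is the concentration that inhibits growth by half.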 Calls of active or inactive are those of the source. Cut-off read from the data, not from the text of the source: active = GI50 up to about 1.1 µM and inactive = higher.

`O=C(c1ccc(Cl)cc1)N(C(=S)OCCOc1ccccc1)c1ccccc1`: the GI50 in experiment [1] is 18.7 µM (inactive); in [2] it was 20.2 µM (inactive); in experiment [3], 13.7 µM (inactive); in experiment [4] it was 23 µM (inactive); in experiment [5], 3.34 µM (inactive); in [6], 17.4 µM (inactive). The GI50 was 18.1 µM (inactive) in [7]; 23.9 µM (inactive) in experiment [8]; 20.3 µM (inactive) in experiment [9]; 18.1 µM (inactive) in experiment [10]; 18.6 µM (inactive) in [11]; 18.9 µM (inactive) in [12]. Moreover, the GI50 in experiment [13] was 22.1 µM (inactive); in experiment [14], 19.3 µM (inactive); in [15], 19.1 µM (inactive); in [16], 20 µM (inactive); in [17], 16.3 µM (inactive); in experiment [18], 0.186 µM (active).

On to `CC1=C(O)C(=O)C[C@]2(C)[C@H]3CC=C4[C@@H]5CC(C)(C)CC[C@@H]5C(=O)[C@H](O)[C@@]4(C)[C@]3(C)CC[C@@H]12`, for which the GI50 in experiment [1] was 19.1 µM (inactive); in [2], > 50 µM (inactive); in experiment [3], > 50 µM (inactive); in experiment [4], 30.7 µM (inactive); in experiment [5], 7.36 µM (inactive); in experiment [19], > 50 µM (inactive). Besides, the GI50 in experiment [7] is > 50 µM (inactive); in experiment [8], > 50 µM (inactive); in [9], 22.6 µM (inactive); in [10], 42.5 µM (inactive); in experiment [11], 10 µM (inactive); in experiment [12] it was 2.8 µM (inactive). Also, the GI50 is 37.4 µM (inactive) in [13]; 34.8 µM (inactive) in experiment [20]; > 50 µM (inactive) in experiment [14]; > 50 µM (inactive) in experiment [15]; > 50 µM (inactive) in experiment [16]; > 50 µM (inactive) in experiment [17]. Besides, the GI50 in [18] was > 50 µM (inactive).

Take `COc1cccc(/C=C/C2=NN(c3cccc(S(=O)(=O)O)c3)C3(C2)SCC(=O)N3c2nc3ccccc3s2)c1` (stereo not given): the GI50 was 21 µM (inactive) in experiment [1]; 53 µM (inactive) in [2]; 30.8 µM (inactive) in experiment [3]; 94.6 µM (inactive) in [5]; 21.1 µM (inactive) in experiment [6]; 23.8 µM (inactive) in experiment [19]. In addition, the GI50 was 86.1 µM (inactive) in [7]; 53.3 µM (inactive) in experiment [8]; 40.7 µM (inactive) in experiment [9]; 22.5 µM (inactive) in experiment [10]; 54.8 µM (inactive) in [11]; 17.1 µM (inactive) in experiment [12]. For the same molecule, the GI50 was 44.8 µM (inactive) in [13]; 36 µM (inactive) in experiment [20]; 33.3 µM (inactive) in experiment [14]; 47.9 µM (inactive) in experiment [15]; 16.1 µM (inactive) in experiment [16]; 36 µM (inactive) in experiment [17]. For the same molecule, the GI50 in [18] was 34.9 µM (inactive).

For the molecule `Cc1cn(C2CC(OC(=O)c3ccc(Cl)cc3)C(COC(=O)c3ccc(Cl)cc3)O2)c(=O)[nH]c1=O` (stereo not given), the GI50 in experiment [1], in experiment [2], in experiment [3], in [4], in [5] and in [6] was > 100 µM (inactive) in each case. The GI50 in [19], in experiment [7], in experiment [8], in [9], in [10] and in [13] was > 100 µM (inactive) in each case. Besides, the GI50 in experiment [20], in experiment [14], in [15], in experiment [16], in [17] and in [18] was > 100 µM (inactive) in each case.

With `O=[As](O)(O)c1ccc(/N=N/c2ccc(O)cc2)cc1`, the GI50 in [1], in experiment [2], in experiment [3], in experiment [4], in [5] and in [6] was > 100 µM (inactive) each time. Moreover, the GI50 in experiment [19], in experiment [7], in experiment [8], in experiment [9], in experiment [10] and in experiment [11] was > 100 µM (inactive) each time. Moreover, the GI50 in [13], in [20], in experiment [14], in experiment [15], in experiment [16] and in experiment [17] was > 100 µM (inactive) throughout. For the same molecule, in experiment [18], the GI50 is > 100 µM (inactive).

Turning to `CC(C)(C)OC(=O)NCCCC(=O)NC1(c2cc3ccccc3s2)CCCCC1`, the GI50 in experiment [1] is 16.9 µM (inactive); in [2], 15.1 µM (inactive); in experiment [3], 11.4 µM (inactive); in experiment [4], 21.4 µM (inactive); in experiment [5], 12.9 µM (inactive); in experiment [6] it was 16 µM (inactive). For the same molecule, the GI50 in experiment [7] was 27.2 µM (inactive); in experiment [8], 16.7 µM (inactive); in experiment [9] it was 19 µM (inactive); in [10], 11.7 µM (inactive); in experiment [11], 9.42 µM (inactive); in experiment [12] it was 15.5 µM (inactive). Further, the GI50 in [20] was 5.89 µM (inactive); in experiment [14] it was 17.5 µM (inactive); in experiment [15] it was 15.8 µM (inactive); in experiment [16] it was 9.66 µM (inactive); in [17], 10.8 µM (inactive); in [18], 4.61 µM (inactive).

For `NC(=O)CC1OC(=O)Cc2cc3c(c(O)c21)C(=O)c1c(O)cccc1C3=O` (stereo not given), the GI50 was > 100 µM (inactive) in experiment [1]; > 100 µM (inactive) in experiment [2]; 59.8 µM (inactive) in experiment [3]; > 100 µM (inactive) in [5]; > 100 µM (inactive) in experiment [6]; > 100 µM (inactive) in experiment [19]. For the same molecule, the GI50 in experiment [7] is > 100 µM (inactive); in experiment [8], > 100 µM (inactive); in experiment [9], > 100 µM (inactive); in experiment [12], 92.7 µM (inactive); in experiment [13], > 100 µM (inactive); in experiment [20] it was 67.5 µM (inactive). The GI50 in experiment [14] is > 100 µM (inactive); in experiment [15] it was > 100 µM (inactive); in experiment [16], > 100 µM (inactive); in [17] it was > 100 µM (inactive); in [18], 32.9 µM (inactive).

Turning to `Nc1ncnc2c1ccn2C/C=C/CO`, the GI50 in experiment [1], in experiment [2], in [3], in [4], in experiment [5] and in experiment [6] was > 100 µM (inactive) throughout. In addition, the GI50 in [7], in experiment [8], in experiment [9], in experiment [10], in experiment [11] and in [12] was > 100 µM (inactive) each time. Besides, the GI50 in experiment [13], in experiment [20], in experiment [14], in experiment [15], in experiment [16] and in experiment [17] was > 100 µM (inactive) in each case. For the same molecule, in experiment [18], the GI50 is > 100 µM (inactive).

As to `Cn1c2ccccc2c2c(-c3ccccc3)[n+]3ccccc3nc21`, the GI50 in [1] was 23.2 µM (inactive); in experiment [2] it was 23 µM (inactive); in experiment [3], 30.5 µM (inactive); in experiment [4], 22.5 µM (inactive); in experiment [5] it was 14.6 µM (inactive); in [6], 18.5 µM (inactive). Further, the GI50 in [7] was 23.2 µM (inactive); in [8], > 100 µM (inactive); in experiment [9], 36.3 µM (inactive); in experiment [10] it was 17.8 µM (inactive); in experiment [12], 34.8 µM (inactive); in experiment [13] it was 20.2 µM (inactive). Further, the GI50 in experiment [20] is 16.8 µM (inactive); in [14], 25.8 µM (inactive); in experiment [15], 23.2 µM (inactive); in [16], 51.5 µM (inactive); in experiment [17] it was 21.2 µM (inactive); in [18] it was > 100 µM (inactive).

Regarding `C=C1OC(c2ccccc2NC)=NC12CCCCC2`, the GI50 in experiment [1], in experiment [2], in experiment [3], in [4], in experiment [5] and in experiment [6] was > 100 µM (inactive) in each case. Moreover, the GI50 in experiment [19], in experiment [7], in experiment [8], in experiment [9], in experiment [11] and in [12] was > 100 µM (inactive) in each case. In addition, the GI50 in [20], in experiment [14], in experiment [15], in experiment [16], in experiment [17] and in experiment [18] was > 100 µM (inactive) each time.

`CN(C(=O)Cc1cc(Cl)c(Cl)cc1NC(=O)CN)[C@H]1CCCC[C@@H]1N1CCCC1`: the GI50 in [1] was 16.3 µM (inactive); in experiment [2], 35.1 µM (inactive); in experiment [3] it was 27.5 µM (inactive); in experiment [4], > 100 µM (inactive); in [5], > 100 µM (inactive); in [6], 18.3 µM (inactive). The GI50 in experiment [7] was > 100 µM (inactive); in experiment [8], > 100 µM (inactive); in experiment [9], 88.3 µM (inactive); in experiment [10], 30.8 µM (inactive); in experiment [11] it was 68.7 µM (inactive); in experiment [13], 18.8 µM (inactive). The GI50 in [14] was 56.6 µM (inactive); in [15], 62.7 µM (inactive); in [16], 25.7 µM (inactive); in [17], 16 µM (inactive); in experiment [18] it was 33.8 µM (inactive).

The values above are taken from ChEMBL document CHEMBL1201862, “PubChem BioAssay data set” (2004).
